Experimental data taken from patent US4533665A, “[[Bis(aryl)methylene]-1-piperidinyl]alkyl-pyrimidinones” (Janssen Pharmaceutica, priority 1984, dated 1985).
Counter-ions that a name gives are not always drawn.

Target: T1, S2-receptor (Rattus norvegicus, UniProt P14842)
T1 construct: Caudal arteries from fasted male rats; from tissue; host or cells: rat caudal artery, helical strips
Assay: antagonistic activity on the effect of serotonin on the caudal artery of the rat (caudal artery test)
Details: rat caudal artery strips; serotonin 40 ng/ml; 5 minutes after adding the drug; read-out: ED50 (minimal concentration which reduces the amplitude of the serotonin-induced contraction to at least 50% of its normal value) (converted)
Description: ANTAGONISTIC ACTIVITY ON THE EFFECT OF SEROTONIN ON THE CAUDAL ARTERY OF THE RAT
Caudal arteries from fasted male rats (210-235 g) were used in the test. […] Submaximal contractions of the arterial strips were produced by adding single doses of serotonin (40 ng/ml) to the organ bath for 2 minutes with each time an interval of 10 minutes. The amplitude of the contraction was measured before and 5 minutes after adding the drug. After washing out, the agonist was added again three times in order to see whether the contraction was restored and normalized. […] In this connection the ED50 -values are the minimal concentrations of the concerned drugs which reduce the amplitude of the contraction to at least 50% of its normal value.

T1 sequence (P14842 whole entry): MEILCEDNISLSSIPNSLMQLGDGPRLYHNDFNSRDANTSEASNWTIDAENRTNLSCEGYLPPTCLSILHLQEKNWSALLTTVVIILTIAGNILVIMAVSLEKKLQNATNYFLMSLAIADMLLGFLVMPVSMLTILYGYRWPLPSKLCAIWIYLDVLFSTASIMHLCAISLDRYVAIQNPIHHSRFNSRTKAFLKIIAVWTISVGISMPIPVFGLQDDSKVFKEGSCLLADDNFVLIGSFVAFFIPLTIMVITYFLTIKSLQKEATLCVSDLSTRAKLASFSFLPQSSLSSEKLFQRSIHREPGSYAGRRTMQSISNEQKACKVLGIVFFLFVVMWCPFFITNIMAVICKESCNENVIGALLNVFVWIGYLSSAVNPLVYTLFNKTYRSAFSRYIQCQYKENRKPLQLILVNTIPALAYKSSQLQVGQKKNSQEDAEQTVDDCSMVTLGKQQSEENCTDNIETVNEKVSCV

Row | SMILES | IC50
1 | Cc1nc2ccccn2c(=O)c1CCN1CCC(=C(c2ccc(O)cc2)c2ccc(F)cc2)CC1 [Compound 20] | 2.66 pM
2 | Cc1nc2sccn2c(=O)c1CCN1CCC(=C(c2ccc(F)cc2)c2cccc(Cl)c2)CC1 [Compound 6] | 1.28 pM
3 | Cc1nc2scc(C)n2c(=O)c1CCN1CCC(=C(c2ccccc2)c2ccccc2)CC1 [Compound 105, 6-[2-[4-(diphenylmethylene)-1-piperidinyl]ethyl]-3,7-dimethyl-5H-thiazolo[3,2-a]pyrimidin-5-one] | 0.702 pM
4 | Cc1ccc(C(=C2CCN(CCc3c(C)nc4sccn4c3=O)CC2)c2ccccc2)cc1 [Compound 66] | 0.158 pM
5 | Cc1nc2n(c(=O)c1CCN1CCC(=C(c3ccc(F)cc3)c3ccc(Cl)cc3)CC1)CCCC2 [Compound 11] | 2.54 pM
6 | Cc1ccc(C(=C2CCN(CCc3c(C)nc4n(c3=O)CCCC4)CC2)c2ccc(F)cc2)cc1 [Compound 42] | 4.66 pM
7 | Cc1ccc(C(=C2CCN(CCc3c(C)nc4n(c3=O)CCS4)CC2)c2ccc(F)cc2)cc1 [Compound 47] | 0.673 pM
8 | Cc1nc2ccc(Cl)cn2c(=O)c1CCN1CCC(=C(c2ccc(F)cc2)c2ccc(F)cc2)CC1 [Compound 51] | 1.4 pM
9 | Cc1nc2sccn2c(=O)c1CCN1CCC(=C(c2ccccc2)c2ccc(O)cc2)CC1 [Compound 80] | 2.84 pM
10 | Cc1ccc(C(=C2CCN(CCc3c(C)nc4scc(C)n4c3=O)CC2)c2ccccc2)cc1 [Compound 129] | 0.49 pM
11 | Cc1nc2n(c(=O)c1CCN1CCC(=C(c3ccc(F)cc3)c3ccc(F)cc3)CC1)CCS2 [Compound 113] | 1.17 pM
12 | Cc1nc2scc(C)n2c(=O)c1CCN1CCC(=C(c2ccc(F)cc2)c2ccc(F)cc2)CC1 [Compound 112, 6-[2-[4-[bis(4-fluorophenyl)methylene]-1-piperidinyl]ethyl]-3,7-dimethyl-5H-thiazolo[3,2-a]pyrimidin-5-one] | 0.651 pM
13 | Cc1nc2n(c(=O)c1CCN1CCC(=C(c3ccc(F)cc3)c3cccc(C(F)(F)F)c3)CC1)CCCS2 [Compound 120] | 1.03 pM
14 | Cc1ccccc1C(=C1CCN(CCc2c(C)nc3scc(C)n3c2=O)CC1)c1ccccc1 [Compound 81] | < 5.32 pM
15 | Cc1ccc(C(=C2CCN(CCc3c(C)nc4n(c3=O)CCCS4)CC2)c2ccc(C)cc2)cc1 [Compound 108, 7-[2-[4-[bis(4-methylphenyl)methylene]-1-piperidinyl]ethyl]-3,4-dihydro-8-methyl-2H,6H-pyrimido[2,1-b][1,3]thiazin-6-one] | 2.68 pM
16 | Cc1nc2ccccn2c(=O)c1CCN1CCC(=C(c2ccc(F)cc2)c2ccc(Br)cc2)CC1 [Compound 45] | 2.44 pM
17 | Cc1nc2scc(C)n2c(=O)c1CCN1CCC(=C(c2ccccc2)c2ccc(O)cc2)CC1 [Compound 72] | 1.51 pM
18 | Cc1nc2n(c(=O)c1CCN1CCC(=C(c3ccccc3)c3ccccc3)CC1)CCCS2 [Compound 104, 7-[2-[4-(diphenylmethylene)-1-piperidinyl]ethyl]-3,4-dihydro-8-methyl-2H,6H-pyrimido[2,1-b][1,3]-thiazin-6-one] | 0.699 pM
19 | Cc1nc2sccn2c(=O)c1CCN1CCC(=C(c2ccc(F)cc2)c2ccc(Br)cc2)CC1 [Compound 34] | 1.04 pM

Row | SMILES | IC50
20 | Cc1nc2sccn2c(=O)c1CCN1CCC(=C(c2ccc(F)cc2)c2ccc(Cl)cc2)CC1 [Compound 9] | < 1.28 pM
21 | COc1ccc(C(=C2CCN(CCc3c(C)nc4sccn4c3=O)CC2)c2ccc(F)cc2)cc1 [Compound 144, 6-[2-[4-[(4-fluorophenyl)(4-methoxyphenyl)methylene]-1-piperidinyl]ethyl]-7-methyl-5H-thiazolo[3,2-a]pyrimidin-5-one monohydrochloride] | 1.06 pM
22 | Cc1nc2n(c(=O)c1CCN1CCC(=C(c3ccccc3)c3cccc(C(F)(F)F)c3)CC1)CCCC2 [Compound 86] | 0.63 pM
23 | Cc1nc2ccccn2c(=O)c1CCN1CCC(=C(c2ccc(F)cc2)c2ccc(F)cc2)CC1 [Compound 2] | 2.76 pM
24 | Cc1cccc(C(=C2CCN(CCc3c(C)nc4scc(C)n4c3=O)CC2)c2ccc(F)cc2)c1 [Compound 122] | 0.656 pM
25 | Cc1ccn2c(=O)c(CCN3CCC(=C(c4ccc(F)cc4)c4ccc(F)cc4)CC3)c(C)nc2c1 [Compound 59] | 0.659 pM
26 | Cc1nc2scc(C)n2c(=O)c1CCN1CCC(=C(c2ccc(F)cc2)c2ccc(Br)cc2)CC1 [Compound 32] | 2.35 pM
27 | Cc1nc2n(c(=O)c1CCN1CCC(=C(c3ccc(F)cc3)c3ccc(F)cc3)CC1)CCCS2 [Compound 29] | 0.648 pM
28 | Cc1ccc(C(=C2CCN(CCc3c(C)nc4n(c3=O)CCCS4)CC2)c2ccc(F)cc2)cc1 [Compound 40] | 1.14 pM
29 | Cc1cccc(C(=C2CCN(CCc3c(C)nc4n(c3=O)CCCS4)CC2)c2ccccc2)c1 [Compound 70] | 1.19 pM
30 | Cc1ccc(C(=C2CCN(CCc3c(C)nc4ccccn4c3=O)CC2)c2ccc(F)cc2)cc1 [Compound 41] | 0.684 pM
31 | COc1ccc(C(=C2CCN(CCc3c(C)nc4n(c3=O)CCCC4)CC2)c2ccc(F)cc2)cc1 [Compound 146, 3-[2-[4-[(4-fluorophenyl)(4-methoxyphenyl)methylene]-1-piperidinyl]ethyl]-6,7,8,9-tetrahydro-2-methyl-4H-pyrido[1,2-a]pyrimidin-4-one dihydrochloride] | 2.32 pM
32 | Cc1nc2n(c(=O)c1CCN1CCC(=C(c3ccccc3)c3ccc(F)cc3)CC1)CCS2 [Compound 116] | 2.82 pM
33 | Cc1nc2ccccn2c(=O)c1CCN1CCC(=C(c2ccc(F)cc2)c2cccc(F)c2)CC1 [Compound 36] | 0.679 pM
34 | Cc1nc2n(c(=O)c1CCN1CCC(=C(c3ccc(F)cc3)c3cccc(F)c3)CC1)CCS2 [Compound 28] | 1.17 pM
35 | Cc1nc2n(c(=O)c1CCN1CCC(=C(c3ccccc3)c3ccc(O)cc3)CC1)CCS2 [Compound 73] | 5.44 pM
36 | Cc1nc2n(c(=O)c1CCN1CCC(=C(c3ccc(F)cc3)c3cccc(Cl)c3)CC1)CCS2 [Compound 5] | 0.323 pM
37 | Cc1nc2ccccn2c(=O)c1CCN1CCC(=C(c2ccccc2)c2cccc(C(F)(F)F)c2)CC1 [Compound 87] | < 4.96 pM
38 | Cc1nc2n(c(=O)c1CCN1CCC(=C(c3ccc(F)cc3)c3cccc(C(F)(F)F)c3)CC1)CCS2 [Compound 118] | 2.36 pM

Row | SMILES | IC50
39 | Cc1nc2sccn2c(=O)c1CCN1CCC(=C(c2ccc(F)cc2)c2cccnc2)CC1 [Compound 53] | 2.82 pM
40 | COC1CN(CCc2c(C)nc3sccn3c2=O)CCC1=C(c1ccc(F)cc1)c1ccc(F)cc1 (centres unmarked) [Compound 63] | 2.56 pM
41 | Cc1nc2sccn2c(=O)c1CCN1CCC(=C(c2ccc(O)cc2)c2ccc(F)cc2)CC1 [Compound 24] | 0.378 pM
42 | Cc1nc2n(c(=O)c1CCN1CCC(=C(c3ccc(F)cc3)c3ccc(Cl)cc3)CC1)CCS2 [Compound 22] | 2.62 pM
43 | Cc1nc2n(c(=O)c1CCN1CCC(=C(c3ccc(F)cc3)c3ccc(Br)cc3)CC1)CCS2 [Compound 44] | 1.04 pM
44 | Cc1nc2sc(C)c(C)n2c(=O)c1CCN1CCC(=C(c2ccc(F)cc2)c2ccc(F)cc2)CC1 [Compound 127] | 0.633 pM
45 | Cc1nc2sccn2c(=O)c1CCN1CCC(=C(c2ccccc2)c2ccc(F)cc2)CC1 [Compound 139, 6-[2-[4-[(4-fluorophenyl)phenylmethylene]-1-piperidinyl]ethyl]-7-methyl-5H-thiazolo[3,2-a]pyrimidin-5-one monohydrochloride] | 0.323 pM
46 | Cc1cccc(C(=C2CCN(CCc3c(C)nc4sccn4c3=O)CC2)c2ccc(F)cc2)c1 [Compound 14] | 1.33 pM
47 | Cc1nc2n(c(=O)c1CCN1CCC(=C(c3ccc(F)cc3)c3cccc(C(F)(F)F)c3)CC1)CCCC2 [Compound 140, 3-[2-[4-[(4-fluorophenyl)[3-(trifluoromethyl)phenyl]methylene]-1-piperidinyl]ethyl]-6,7,8,9-tetrahydro-2-methyl-4H-pyrido[1,2-a]pyrimidin-4-one dihydrochloride] | 2.09 pM
48 | Cc1ccccc1C(=C1CCN(CCc2c(C)nc3n(c2=O)CCCC3)CC1)c1ccccc1 [Compound 92] | 0.705 pM
49 | Cc1ccc(C(=C2CCN(CCc3c(C)nc4sccn4c3=O)CC2)c2ccc(F)cc2)cc1 [Compound 49] | 0.676 pM
50 | Cc1nc2scc(C)n2c(=O)c1CCN1CCC(=C(c2ccc(O)cc2)c2ccc(F)cc2)CC1 [Compound 23, 6-[2-[4-[(4-fluorophenyl)-(4-hydroxyphenyl)methylene]-1-piperidinyl]ethyl]-3,7-dimethyl-5H-thiazolo[3,2-a]pyrimidin-5-one] | 1.14 pM
51 | Cc1nc2scc(C)n2c(=O)c1CCN1CCC(=C(c2ccc(F)cc2)c2cccnc2)CC1 [Compound 124] | 2.74 pM
52 | Cc1nc2ccccn2c(=O)c1CCN1CCC(=C(c2ccc(F)cc2)c2cccc(C(F)(F)F)c2)CC1 [Compound 31] | 4.79 pM
53 | Cc1nc2n(c(=O)c1CCN1CCC(=C(c3ccc(F)cc3)c3cccnc3)CC1)CCCC2 [Compound 54] | 6.11 pM
54 | Cc1nc2n(c(=O)c1CCN1CCC(=C(c3ccccc3)c3ccc(F)cc3)CC1)CCCC2 [Compound 137, 3-[2-[4-[(4-fluorophenyl)phenylmethylene]-1-piperidinyl]ethyl]-6,7,8,9-tetrahydro-2-methyl-4H-pyrido[1,2-a]pyrimidin-4-one dihydrochloride] | 2.45 pM
55 | Cc1nc2n(c(=O)c1CCN1CCC(=C(c3ccc(F)cc3)c3ccc(Br)cc3)CC1)CCCC2 [Compound 35] | 1.32 pM
56 | COc1ccc(C(=C2CCN(CCc3c(C)nc4scc(C)n4c3=O)CC2)c2ccc(F)cc2)cc1 [Compound 142, 6-[2-[4-[(4-fluorophenyl)(4-methoxyphenyl)methylene]-1-piperidinyl]ethyl]-3,7-dimethyl-5H-thiazolo[3,2-a]pyrimidin-5-one] | 1.11 pM
